In ChEMBL document CHEMBL3991601, “The target landscape of clinical kinase drugs” (Science, 2017):
Activity calls are given as the source filed them.

Experiments:
[1] = molecular target: T1, Serine/threonine-protein kinase NLK (Homo sapiens, UniProt Q9UBE8)
T1 sequence (Q9UBE8 whole entry): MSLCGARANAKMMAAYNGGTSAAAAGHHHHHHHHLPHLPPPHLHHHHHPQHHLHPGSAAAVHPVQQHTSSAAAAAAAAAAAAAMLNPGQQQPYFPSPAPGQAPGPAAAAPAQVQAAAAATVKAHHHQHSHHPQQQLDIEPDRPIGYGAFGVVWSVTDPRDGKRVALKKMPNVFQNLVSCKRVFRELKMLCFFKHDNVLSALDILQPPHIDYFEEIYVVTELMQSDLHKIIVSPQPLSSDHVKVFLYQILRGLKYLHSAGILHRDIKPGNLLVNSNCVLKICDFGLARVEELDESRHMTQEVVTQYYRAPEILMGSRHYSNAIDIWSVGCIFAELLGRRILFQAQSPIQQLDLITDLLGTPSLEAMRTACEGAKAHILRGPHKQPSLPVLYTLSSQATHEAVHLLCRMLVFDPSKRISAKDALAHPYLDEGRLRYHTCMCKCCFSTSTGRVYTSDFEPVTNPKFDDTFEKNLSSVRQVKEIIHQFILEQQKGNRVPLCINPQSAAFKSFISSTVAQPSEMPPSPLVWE

[2] = molecular target: T2, Mitogen-activated protein kinase kinase kinase kinase 3 (Homo sapiens, UniProt Q8IVH8)
T2 sequence (Q8IVH8 whole entry): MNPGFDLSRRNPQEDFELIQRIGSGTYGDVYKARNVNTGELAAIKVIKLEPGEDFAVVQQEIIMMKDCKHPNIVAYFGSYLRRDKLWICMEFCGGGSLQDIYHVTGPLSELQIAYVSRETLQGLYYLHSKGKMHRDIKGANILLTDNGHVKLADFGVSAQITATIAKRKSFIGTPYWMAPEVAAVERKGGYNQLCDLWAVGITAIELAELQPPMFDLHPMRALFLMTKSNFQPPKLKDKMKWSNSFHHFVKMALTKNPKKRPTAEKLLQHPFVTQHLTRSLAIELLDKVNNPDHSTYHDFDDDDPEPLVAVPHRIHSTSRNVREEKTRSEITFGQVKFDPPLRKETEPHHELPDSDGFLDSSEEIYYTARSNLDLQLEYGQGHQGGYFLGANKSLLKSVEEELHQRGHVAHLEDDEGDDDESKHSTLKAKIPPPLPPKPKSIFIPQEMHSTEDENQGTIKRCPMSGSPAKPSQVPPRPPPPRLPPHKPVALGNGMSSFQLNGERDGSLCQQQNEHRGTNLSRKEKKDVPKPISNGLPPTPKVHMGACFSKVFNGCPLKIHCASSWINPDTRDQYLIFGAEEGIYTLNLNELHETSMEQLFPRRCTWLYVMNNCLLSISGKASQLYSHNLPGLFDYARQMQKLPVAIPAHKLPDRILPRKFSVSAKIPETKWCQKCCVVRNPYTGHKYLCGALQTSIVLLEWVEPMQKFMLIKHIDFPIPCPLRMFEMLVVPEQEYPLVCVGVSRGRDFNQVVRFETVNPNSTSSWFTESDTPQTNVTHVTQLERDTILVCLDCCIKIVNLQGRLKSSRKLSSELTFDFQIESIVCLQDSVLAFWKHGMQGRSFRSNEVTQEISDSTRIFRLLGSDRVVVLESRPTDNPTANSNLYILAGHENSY

[3] = molecular target: Mitogen-activated protein kinase 14 (Homo sapiens, UniProt Q16539)
[4] = molecular target: T3, Ras-related protein Rab-27A (Homo sapiens, UniProt P51159)
T3 sequence (P51159 whole entry): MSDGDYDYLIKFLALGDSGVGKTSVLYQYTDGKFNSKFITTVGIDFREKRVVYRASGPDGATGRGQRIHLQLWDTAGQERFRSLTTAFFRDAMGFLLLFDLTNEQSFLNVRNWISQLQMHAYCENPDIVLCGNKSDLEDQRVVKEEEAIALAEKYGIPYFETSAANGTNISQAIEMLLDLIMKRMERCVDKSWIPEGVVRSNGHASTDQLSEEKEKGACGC

[5] = molecular target: T4, Phosphatidylinositol 5-phosphate 4-kinase type-2 alpha (Homo sapiens, UniProt P48426)
T4 sequence (P48426 whole entry): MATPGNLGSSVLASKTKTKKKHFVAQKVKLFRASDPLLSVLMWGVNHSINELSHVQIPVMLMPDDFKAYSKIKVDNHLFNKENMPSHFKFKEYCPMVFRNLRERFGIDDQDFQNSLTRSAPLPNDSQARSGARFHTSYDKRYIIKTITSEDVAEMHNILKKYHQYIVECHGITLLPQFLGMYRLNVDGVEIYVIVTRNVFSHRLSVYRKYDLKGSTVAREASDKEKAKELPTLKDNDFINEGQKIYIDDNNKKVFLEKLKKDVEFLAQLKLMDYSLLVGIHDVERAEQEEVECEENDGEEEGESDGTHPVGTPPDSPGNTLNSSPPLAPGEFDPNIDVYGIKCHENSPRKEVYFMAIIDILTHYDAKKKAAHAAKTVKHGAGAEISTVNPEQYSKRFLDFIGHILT
Note: in the data inactive means no Kd found up to 30 µM.

Mitogen-activated protein kinase 14, sequence (Q16539 whole entry): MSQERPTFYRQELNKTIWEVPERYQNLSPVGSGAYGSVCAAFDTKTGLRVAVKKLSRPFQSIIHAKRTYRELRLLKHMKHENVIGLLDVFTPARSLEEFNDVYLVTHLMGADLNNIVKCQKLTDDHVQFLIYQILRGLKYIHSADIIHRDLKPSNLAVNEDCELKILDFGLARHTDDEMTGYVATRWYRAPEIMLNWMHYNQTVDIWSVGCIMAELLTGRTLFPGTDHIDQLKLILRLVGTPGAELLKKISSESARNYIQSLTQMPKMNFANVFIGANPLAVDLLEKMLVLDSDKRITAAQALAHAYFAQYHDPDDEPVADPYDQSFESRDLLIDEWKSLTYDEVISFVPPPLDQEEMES

| Structure (SMILES) | Kd [1] | Kd [2] | Kd [3] | Kd [4] | Kd [5] |
| --- | --- | --- | --- | --- | --- |
| CN1CCN(CCOc2cc(OC3CCOCC3)c3c(Nc4c(Cl)ccc5c4OCO5)ncnc3c2)CC1 [SARACATINIB] | > 30 µM (inactive) | > 30 µM (inactive) | > 30 µM (inactive) | > 30 µM (inactive) | > 30 µM (inactive) |
| CO[C@H]1C[C@@H]2CC[C@@H](C)[C@@](O)(O2)C(=O)C(=O)N2CCCC[C@H]2C(=O)O[C@H]([C@H](C)C[C@@H]2CC[C@@H](O)[C@H](OC)C2)CC(=O)[C@H](C)/C=C(\C)[C@@H](O)[C@@H](OC)C(=O)[C@H](C)C[C@H](C)/C=C/C=C/C=C/1C [SIROLIMUS] | > 30 µM (inactive) | > 30 µM (inactive) | > 30 µM (inactive) | > 30 µM (inactive) | > 30 µM (inactive) |
| COc1cc2c(Nc3ccc(Cl)c(Cl)c3F)ncnc2cc1OC[C@@H]1C[C@@H]2CN(C)C[C@@H]2C1 [TESEVATINIB] | > 30 µM (inactive) | 1.82 µM (active) | > 30 µM (inactive) | > 30 µM (inactive) | > 30 µM (inactive) |
| O=C(Cc1ccc(-c2ccc(OCCN3CCOCC3)cc2)cn1)NCc1ccccc1 [TIRBANIBULIN] | > 30 µM (inactive) | > 30 µM (inactive) | > 30 µM (inactive) | > 30 µM (inactive) | > 30 µM (inactive) |
| C[C@@H](NC(=O)c1ncnc(N)c1Cl)c1ncc(C(=O)Nc2cc(C(F)(F)F)c(Cl)cn2)s1 [TOVORAFENIB] | > 30 µM (inactive) | > 30 µM (inactive) | 0.358 µM (active) | > 30 µM (inactive) | > 30 µM (inactive) |
| Cc1cc(Nc2ncnc3ccc(NC4=NC(C)(C)CO4)cc23)ccc1Oc1ccn2ncnc2c1 [TUCATINIB] | > 30 µM (inactive) | > 30 µM (inactive) | > 30 µM (inactive) | > 30 µM (inactive) | > 30 µM (inactive) |
| CN1C/C=C/CCOc2cccc(c2)-c2ccnc(n2)Nc2cccc(c2)C1 [ZOTIRACICLIB] | > 30 µM (inactive) | 0.85 µM (active) | > 30 µM (inactive) | > 30 µM (inactive) | > 30 µM (inactive) |

The remaining lines, values ahead:

| Kd [1] | Kd [2] | Kd [3] | Kd [4] | Kd [5] | Structure (SMILES) |
| --- | --- | --- | --- | --- | --- |
| > 30 µM (inactive) | > 30 µM (inactive) | > 30 µM (inactive) | > 30 µM (inactive) | > 30 µM (inactive) | Cn1cc(-c2cnn3c(N)c(Br)c([C@@H]4CCCNC4)nc23)cn1 [SCH-900776] |
| > 30 µM (inactive) | 9.28 µM | > 30 µM (inactive) | > 30 µM (inactive) | > 30 µM (inactive) | CCS(=O)(=O)c1cccc(-c2cc(C(=O)NC3CCN(C)CC3)c(C)c3[nH]c4ncc(C)cc4c23)c1 [TAK-901] |
| > 30 µM (inactive) | > 30 µM (inactive) | > 30 µM (inactive) | > 30 µM (inactive) | > 30 µM (inactive) | CO[C@H]1C[C@@H]2CC[C@@H](C)[C@@](O)(O2)C(=O)C(=O)N2CCCC[C@H]2C(=O)O[C@H]([C@H](C)C[C@@H]2CC[C@@H](OC(=O)C(C)(CO)CO)[C@H](OC)C2)CC(=O)[C@H](C)/C=C(\C)[C@@H](O)[C@@H](OC)C(=O)[C@H](C)C[C@H](C)/C=C/C=C/C=C/1C [TEMSIROLIMUS] |
| > 30 µM (inactive) | > 30 µM (inactive) | > 30 µM (inactive) | > 30 µM (inactive) | > 30 µM (inactive) | Cn1ncc(Cl)c1-c1cc(C(=O)N[C@H](CN)Cc2ccc(F)c(F)c2)oc1Cl [UPROSERTIB] |
